Reference: ChEMBL document CHEMBL5465560, “Selectivity Literature for EUbOPEN Chemogenomic Library” (2024)

Key:
[1] = target: Phosphatidylinositol 3-kinase catalytic subunit type 3 (Homo sapiens, UniProt Q8NEB9); assay: Selectivity interaction (KinomeScan (DiscoverX)) EUB0001049a PIK3C3; conditions: at 1 µM
[2] = target: T1, Aurora kinase A (Homo sapiens) (UniProt O14965); assay: Selectivity interaction (Kinase panel (literature)) EUB0001199aCl STK6; conditions: at 1 µM
T1 sequence (whole entry): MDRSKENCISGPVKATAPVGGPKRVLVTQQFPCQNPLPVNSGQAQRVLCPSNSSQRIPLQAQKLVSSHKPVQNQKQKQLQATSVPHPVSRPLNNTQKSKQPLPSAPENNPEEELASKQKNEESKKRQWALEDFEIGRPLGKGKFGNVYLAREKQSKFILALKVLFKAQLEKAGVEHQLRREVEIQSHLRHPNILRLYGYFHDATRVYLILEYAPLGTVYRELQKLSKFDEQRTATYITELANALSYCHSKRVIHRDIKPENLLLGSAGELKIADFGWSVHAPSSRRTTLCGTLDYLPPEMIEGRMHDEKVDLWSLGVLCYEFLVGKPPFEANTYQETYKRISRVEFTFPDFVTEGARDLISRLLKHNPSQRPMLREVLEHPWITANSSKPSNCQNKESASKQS

[3] = target: T2, Testis-specific serine/threonine-protein kinase 1 (Homo sapiens) (UniProt Q9BXA7); assay: Selectivity interaction (KinomeScan (DiscoverX)) EUB0001079a TSSK1B; conditions: at 1 µM
T2 sequence (whole entry): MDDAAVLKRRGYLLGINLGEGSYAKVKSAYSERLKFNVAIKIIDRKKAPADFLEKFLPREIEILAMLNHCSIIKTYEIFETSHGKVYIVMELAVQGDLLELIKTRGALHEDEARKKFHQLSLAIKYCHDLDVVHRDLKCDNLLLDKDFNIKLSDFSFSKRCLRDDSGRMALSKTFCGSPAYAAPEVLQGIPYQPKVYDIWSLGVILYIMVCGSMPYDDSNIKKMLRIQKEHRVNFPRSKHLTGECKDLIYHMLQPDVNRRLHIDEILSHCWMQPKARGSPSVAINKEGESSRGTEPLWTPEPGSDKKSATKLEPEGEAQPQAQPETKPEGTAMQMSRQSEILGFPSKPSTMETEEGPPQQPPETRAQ

[4] = target: Serine/threonine-protein kinase PLK3 (Homo sapiens, UniProt Q9H4B4); conditions: at 10 µM
[5] = target: Receptor tyrosine-protein kinase erbB-2 (Homo sapiens, UniProt P04626); conditions: at 10 µM
[6] = target: Protein arginine N-methyltransferase 6 (Homo sapiens, UniProt Q96LA8); assay: Selectivity interaction (Transferase panel (protein, RNA, and DNA methyltransferases. and EP300 (acetyltransferase))) EUB0000270b PRMT6
[7] = target: Ribosomal protein S6 kinase alpha-3 (Homo sapiens, UniProt P51812); assay: Selectivity interaction (Kinase panel (Invitrogen)) EUB0000639a RPS6KA3; conditions: at 200 nM
[8] = target: Serine/threonine-protein kinase tousled-like 2 (Homo sapiens) (UniProt Q86UE8); assay: Selectivity interaction (ActivX KiNativ screen (kinase selectivity in THP-1 cell lysates)) EUB0000639a TLK2; type: subcellular; conditions: lysate, at 1 µM
[9] = target: Cyclin-dependent kinase 2/cyclin E (Homo sapiens, UniProt P24941); assay: Selectivity interaction (Enzyme panel (AstraZeneca, AlphaScreen, functional assay)) EUB0000621a CDK2; type: protein-complex assay
[10] = target: T3, cGMP-dependent protein kinase 2 (Homo sapiens) (UniProt Q13237); assay: Selectivity interaction (KinomeScan (DiscoverX)) EUB0001619a PRKG2; conditions: at 1 µM
T3 sequence (whole entry): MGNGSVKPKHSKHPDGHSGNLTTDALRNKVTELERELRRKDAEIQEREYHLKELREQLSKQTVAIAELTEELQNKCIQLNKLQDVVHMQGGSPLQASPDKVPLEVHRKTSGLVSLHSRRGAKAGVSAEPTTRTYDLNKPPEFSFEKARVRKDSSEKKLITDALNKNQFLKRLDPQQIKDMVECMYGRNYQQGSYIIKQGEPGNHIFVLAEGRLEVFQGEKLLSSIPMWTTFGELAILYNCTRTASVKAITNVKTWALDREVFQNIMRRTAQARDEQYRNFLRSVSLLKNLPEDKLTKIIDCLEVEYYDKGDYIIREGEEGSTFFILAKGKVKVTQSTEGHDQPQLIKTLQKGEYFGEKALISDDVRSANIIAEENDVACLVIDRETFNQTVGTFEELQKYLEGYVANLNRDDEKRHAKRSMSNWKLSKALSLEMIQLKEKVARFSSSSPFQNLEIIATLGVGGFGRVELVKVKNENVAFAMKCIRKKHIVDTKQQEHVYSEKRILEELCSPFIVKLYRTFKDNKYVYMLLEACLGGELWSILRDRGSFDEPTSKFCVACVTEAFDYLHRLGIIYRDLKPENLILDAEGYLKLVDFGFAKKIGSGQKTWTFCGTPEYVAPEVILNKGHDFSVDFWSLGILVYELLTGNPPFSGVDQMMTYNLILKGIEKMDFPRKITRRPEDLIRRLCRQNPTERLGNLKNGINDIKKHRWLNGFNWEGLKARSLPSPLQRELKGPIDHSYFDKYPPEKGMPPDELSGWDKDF

[11] = target: Serine/threonine-protein kinase Chk2 (Homo sapiens) (UniProt O96017); assay: Selectivity interaction (KinomeScan (DiscoverX)) EUB0000655a CHEK2; conditions: at 10 µM
[12] = target: Serine/threonine-protein kinase/endoribonuclease IRE1 (Homo sapiens) (UniProt O75460); assay: Selectivity interaction (KinomeScan (DiscoverX)) EUB0000655a ERN1; conditions: at 10 µM
[13] = target: MAP kinase-activated protein kinase 2 (Homo sapiens, UniProt P49137); assay: Selectivity interaction (KinomeScan (DiscoverX)) EUB0000655a MAPKAPK2; conditions: at 10 µM
[14] = target: Tyrosine-protein kinase Lyn (Homo sapiens, UniProt P07948); assay: Selectivity interaction (SelectScreen profiling (Invitrogen)) EUB0000607a LYN; conditions: at 2 µM
[15] = target: Proto-oncogene tyrosine-protein kinase Src (Homo sapiens, UniProt P12931); assay: Selectivity interaction (KinomeScan (DiscoverX)) EUB0001868a SRC; conditions: at 1 µM

Protein arginine N-methyltransferase 6, sequence (Q96LA8 whole entry, looked up): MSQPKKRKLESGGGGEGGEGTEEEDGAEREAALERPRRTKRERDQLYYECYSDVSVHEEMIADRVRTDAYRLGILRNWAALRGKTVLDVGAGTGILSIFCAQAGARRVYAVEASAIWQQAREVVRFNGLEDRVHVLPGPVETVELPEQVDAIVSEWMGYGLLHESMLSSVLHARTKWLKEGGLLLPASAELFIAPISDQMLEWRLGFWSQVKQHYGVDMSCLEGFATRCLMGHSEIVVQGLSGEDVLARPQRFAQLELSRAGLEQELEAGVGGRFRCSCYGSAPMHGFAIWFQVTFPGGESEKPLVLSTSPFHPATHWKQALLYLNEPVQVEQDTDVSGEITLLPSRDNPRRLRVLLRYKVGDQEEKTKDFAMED
Phosphatidylinositol 3-kinase catalytic subunit type 3, sequence (Q8NEB9 whole entry): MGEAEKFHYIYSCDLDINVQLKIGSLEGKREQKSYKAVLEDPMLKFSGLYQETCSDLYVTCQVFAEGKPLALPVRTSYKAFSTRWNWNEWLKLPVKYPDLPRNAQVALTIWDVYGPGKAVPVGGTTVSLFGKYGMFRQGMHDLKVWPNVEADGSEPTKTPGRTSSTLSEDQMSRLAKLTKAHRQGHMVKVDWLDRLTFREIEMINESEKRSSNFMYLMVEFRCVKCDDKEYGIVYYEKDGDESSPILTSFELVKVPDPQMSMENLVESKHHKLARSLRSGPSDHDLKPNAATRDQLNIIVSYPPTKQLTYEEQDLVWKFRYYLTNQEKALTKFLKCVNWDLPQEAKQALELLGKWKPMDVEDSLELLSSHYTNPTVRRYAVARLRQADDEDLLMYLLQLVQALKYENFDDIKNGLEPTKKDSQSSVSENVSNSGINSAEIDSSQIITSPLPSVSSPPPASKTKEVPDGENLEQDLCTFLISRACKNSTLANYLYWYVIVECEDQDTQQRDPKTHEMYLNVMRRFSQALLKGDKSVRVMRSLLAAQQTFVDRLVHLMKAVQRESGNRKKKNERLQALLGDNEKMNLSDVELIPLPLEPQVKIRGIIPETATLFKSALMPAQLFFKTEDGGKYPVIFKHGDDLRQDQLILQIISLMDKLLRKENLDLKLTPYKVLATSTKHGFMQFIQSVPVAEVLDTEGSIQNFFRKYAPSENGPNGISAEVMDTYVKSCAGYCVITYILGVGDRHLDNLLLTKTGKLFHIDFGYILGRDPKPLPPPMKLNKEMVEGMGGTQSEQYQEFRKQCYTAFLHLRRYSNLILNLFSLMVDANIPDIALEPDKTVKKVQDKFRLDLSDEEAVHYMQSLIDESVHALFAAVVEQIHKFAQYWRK
Serine/threonine-protein kinase/endoribonuclease IRE1 (Homo sapiens), sequence (O75460 19-977 limits assumed): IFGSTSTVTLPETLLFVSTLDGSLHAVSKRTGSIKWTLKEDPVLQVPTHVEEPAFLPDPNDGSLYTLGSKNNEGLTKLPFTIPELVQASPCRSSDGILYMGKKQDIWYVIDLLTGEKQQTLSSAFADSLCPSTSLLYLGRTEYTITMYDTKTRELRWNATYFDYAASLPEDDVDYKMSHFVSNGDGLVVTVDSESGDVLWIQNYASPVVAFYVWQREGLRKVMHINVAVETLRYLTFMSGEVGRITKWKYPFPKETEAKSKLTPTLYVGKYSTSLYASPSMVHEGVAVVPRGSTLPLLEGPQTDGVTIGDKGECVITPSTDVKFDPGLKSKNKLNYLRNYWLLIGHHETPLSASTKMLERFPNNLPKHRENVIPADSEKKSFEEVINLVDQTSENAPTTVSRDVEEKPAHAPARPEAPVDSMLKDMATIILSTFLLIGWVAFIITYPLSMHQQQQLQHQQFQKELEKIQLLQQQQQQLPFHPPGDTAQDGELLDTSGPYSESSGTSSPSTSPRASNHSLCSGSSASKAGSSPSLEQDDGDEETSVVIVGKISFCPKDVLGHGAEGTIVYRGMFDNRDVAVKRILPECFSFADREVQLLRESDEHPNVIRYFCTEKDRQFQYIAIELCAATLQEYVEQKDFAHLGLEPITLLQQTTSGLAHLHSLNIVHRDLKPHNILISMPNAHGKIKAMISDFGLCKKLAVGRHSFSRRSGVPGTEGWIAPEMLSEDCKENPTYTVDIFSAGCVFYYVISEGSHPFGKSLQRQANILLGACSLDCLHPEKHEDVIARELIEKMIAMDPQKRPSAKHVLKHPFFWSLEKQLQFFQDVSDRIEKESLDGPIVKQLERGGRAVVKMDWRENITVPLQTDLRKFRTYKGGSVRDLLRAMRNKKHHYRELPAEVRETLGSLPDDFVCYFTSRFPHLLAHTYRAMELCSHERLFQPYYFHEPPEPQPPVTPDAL
Serine/threonine-protein kinase Chk2 (Homo sapiens), sequence (O96017 whole entry): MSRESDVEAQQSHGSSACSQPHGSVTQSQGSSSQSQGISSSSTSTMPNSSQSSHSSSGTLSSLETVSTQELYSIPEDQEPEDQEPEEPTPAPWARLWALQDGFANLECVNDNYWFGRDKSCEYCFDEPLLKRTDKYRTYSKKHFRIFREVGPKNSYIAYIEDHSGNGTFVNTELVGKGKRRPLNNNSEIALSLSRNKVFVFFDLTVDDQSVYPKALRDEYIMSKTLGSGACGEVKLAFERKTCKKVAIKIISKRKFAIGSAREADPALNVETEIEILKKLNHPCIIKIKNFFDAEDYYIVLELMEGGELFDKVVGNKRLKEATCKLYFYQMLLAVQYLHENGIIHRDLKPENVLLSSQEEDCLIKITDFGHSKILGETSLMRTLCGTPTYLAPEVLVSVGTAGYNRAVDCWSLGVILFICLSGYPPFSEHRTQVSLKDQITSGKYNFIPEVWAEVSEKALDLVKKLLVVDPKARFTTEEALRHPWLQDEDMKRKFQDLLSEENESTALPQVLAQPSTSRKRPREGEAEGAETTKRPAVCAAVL
Serine/threonine-protein kinase tousled-like 2 (Homo sapiens), sequence (Q86UE8 whole entry, looked up): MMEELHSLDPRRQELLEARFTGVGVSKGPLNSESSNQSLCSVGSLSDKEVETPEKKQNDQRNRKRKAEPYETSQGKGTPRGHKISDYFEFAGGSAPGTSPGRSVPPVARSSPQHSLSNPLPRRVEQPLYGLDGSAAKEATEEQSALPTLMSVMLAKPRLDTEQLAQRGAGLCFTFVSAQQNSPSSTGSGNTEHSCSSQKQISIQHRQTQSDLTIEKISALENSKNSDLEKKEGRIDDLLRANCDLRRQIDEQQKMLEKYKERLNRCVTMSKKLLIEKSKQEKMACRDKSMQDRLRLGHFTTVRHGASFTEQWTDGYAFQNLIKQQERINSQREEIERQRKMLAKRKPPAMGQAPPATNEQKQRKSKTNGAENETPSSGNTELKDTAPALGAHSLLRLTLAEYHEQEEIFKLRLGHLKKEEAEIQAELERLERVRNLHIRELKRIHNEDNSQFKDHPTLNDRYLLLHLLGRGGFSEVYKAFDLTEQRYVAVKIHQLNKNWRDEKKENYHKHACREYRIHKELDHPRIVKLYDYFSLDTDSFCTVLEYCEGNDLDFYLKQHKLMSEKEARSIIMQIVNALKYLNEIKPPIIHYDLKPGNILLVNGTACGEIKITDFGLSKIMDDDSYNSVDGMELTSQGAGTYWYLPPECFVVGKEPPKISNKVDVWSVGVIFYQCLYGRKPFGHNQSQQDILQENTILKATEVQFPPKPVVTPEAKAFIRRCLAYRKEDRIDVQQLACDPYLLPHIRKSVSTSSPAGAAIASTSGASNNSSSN
Serine/threonine-protein kinase PLK3, sequence (Q9H4B4 whole entry, looked up): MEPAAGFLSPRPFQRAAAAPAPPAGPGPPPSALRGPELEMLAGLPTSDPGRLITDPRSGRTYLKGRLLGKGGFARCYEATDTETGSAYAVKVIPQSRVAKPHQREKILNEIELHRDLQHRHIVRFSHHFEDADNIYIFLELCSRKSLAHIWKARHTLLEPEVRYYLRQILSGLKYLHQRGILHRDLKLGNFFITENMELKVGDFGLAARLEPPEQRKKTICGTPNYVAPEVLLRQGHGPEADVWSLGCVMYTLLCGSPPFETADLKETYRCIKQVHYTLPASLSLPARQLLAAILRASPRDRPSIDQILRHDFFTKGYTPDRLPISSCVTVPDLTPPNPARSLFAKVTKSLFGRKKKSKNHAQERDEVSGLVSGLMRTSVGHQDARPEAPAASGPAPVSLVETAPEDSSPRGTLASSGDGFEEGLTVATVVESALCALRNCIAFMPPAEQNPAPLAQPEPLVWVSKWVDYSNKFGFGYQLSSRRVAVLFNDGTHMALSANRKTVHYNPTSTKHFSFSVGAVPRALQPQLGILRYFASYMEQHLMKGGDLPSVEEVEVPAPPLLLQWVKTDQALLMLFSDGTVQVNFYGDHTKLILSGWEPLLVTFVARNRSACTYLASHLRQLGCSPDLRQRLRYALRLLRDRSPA
Ribosomal protein S6 kinase alpha-3, sequence (P51812 whole entry): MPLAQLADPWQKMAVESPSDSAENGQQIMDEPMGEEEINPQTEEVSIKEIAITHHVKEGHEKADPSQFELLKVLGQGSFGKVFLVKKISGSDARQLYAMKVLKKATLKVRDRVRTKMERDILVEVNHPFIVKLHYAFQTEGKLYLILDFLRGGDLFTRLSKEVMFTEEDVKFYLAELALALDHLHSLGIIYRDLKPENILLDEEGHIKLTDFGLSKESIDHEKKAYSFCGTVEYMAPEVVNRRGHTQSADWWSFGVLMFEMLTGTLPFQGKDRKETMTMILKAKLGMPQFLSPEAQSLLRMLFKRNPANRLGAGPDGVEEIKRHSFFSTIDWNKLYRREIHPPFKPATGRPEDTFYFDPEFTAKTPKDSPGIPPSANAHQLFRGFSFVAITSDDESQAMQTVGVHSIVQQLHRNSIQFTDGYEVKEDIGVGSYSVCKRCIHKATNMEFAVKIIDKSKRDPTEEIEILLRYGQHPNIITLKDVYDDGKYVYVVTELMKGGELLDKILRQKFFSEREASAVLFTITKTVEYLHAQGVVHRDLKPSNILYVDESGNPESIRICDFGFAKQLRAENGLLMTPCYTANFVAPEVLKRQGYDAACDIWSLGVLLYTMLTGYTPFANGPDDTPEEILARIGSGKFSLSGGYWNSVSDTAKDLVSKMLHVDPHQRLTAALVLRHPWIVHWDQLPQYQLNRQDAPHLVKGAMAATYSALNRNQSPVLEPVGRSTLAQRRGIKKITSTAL

## COc1cc(Nc2nc(C)cc(-c3cnn4nc(OC)ccc34)n2)cc(C(F)(F)F)c1
[1]
  % of control: 100%

## CN1Cc2nccc(-c3cn(C)nc3-c3ccc(F)cc3)c2C1=O
[2]
  % of inhibition: -4%

## Nc1cnc(N2CCc3cc(S(=O)(=O)Nc4c(F)cc(Cl)cc4F)cc(N4CCCC4=O)c32)nc1 [TP-020n]
[3]
  % of control: 100%

## CCN(CC)CCCCNc1ncc2cc(-c3cc(OC)cc(OC)c3)c(NC(=O)NC(C)(C)C)nc2n1
[4]
  % of control: 100%
[5]
  % of control: 100%

## Cc1cc(CN)cc(C)c1-c1ncn(C)c1-c1cncn1C
[6]; at 1 µM
  % activity: > 90%
[6]; at 10 µM
  % activity: > 80%

## CC[C@@H]1[C@H](F)C(=O)N[C@@H]1COc1nccc2cc(C(N)=O)c(OC)cc12 [ZIMLOVISERTIB]
[7]
  % of inhibition: -6.31%
[8]
  % of inhibition: 43.3%

## Cc1cc([C@@H](C)Nc2ccccc2C(=O)O)c2nc(N3CCOCC3)cc(=O)n2c1 [AZD-6482]
[9]
  IC50: > 1000 µM

## N#Cc1cccc(-c2c[nH]c3ncnc(N4CCOCC4)c23)c1
[10]
  % of control: 100%

## CN(C)CCOc1ccc(-c2nc(-c3ccncc3)c(-c3ccc4c(c3)CC/C4=N\O)[nH]2)cc1
[11]
  % of control: 100%
[12]
  % of control: 62%
[13]
  % of control: 100%

## CNC(=O)Nc1ccc(-c2nc(N3CC4CCC(C3)O4)c3cnn(C4CCC5(CC4)OCCO5)c3n2)cc1
[14]
  % of inhibition: 7%

## Cc1cc(-c2ccnc(Nc3cnn(C)c3)n2)ccc1CNC(=O)N1CC(OC(C)C)C1
[15]
  % of control: 31%
